Measured values: the NIST ThermoML archive (doi:10.1021/je0604378)

Settings: Liquid; for speed of sound: Pulse-echo method; for mass density: 101.33 kPa

CCCCCCCCCCO [decan-1-ol]
Settings	speed of sound [m/s]
292.86 K, 60790 kPa	1646.3
292.9 K, 30390 kPa	1533.8
292.91 K, 15200 kPa	1470.6
292.96 K, 45590 kPa	1592
293.1 K, 100 kPa	1397.2
297.95 K, 15200 kPa	1453.8
297.95 K, 66240 kPa	1649.8
297.96 K, 30390 kPa	1518
297.96 K, 60790 kPa	1631.4
297.96 K, 69300 kPa	1660
297.98 K, 45590 kPa	1576.8
297.99 K, 71850 kPa	1668.2
297.99 K, 73520 kPa	1673.6
297.99 K, 74700 kPa	1677.6
298 K, 75990 kPa	1681.7
298.07 K, 100 kPa	1380
302.92 K, 15200 kPa	1436.8
303.02 K, 60790 kPa	1617
303.03 K, 66240 kPa	1635.7
303.03 K, 71560 kPa	1653.5
303.04 K, 100 kPa	1362.8
303.04 K, 73600 kPa	1660.2
303.05 K, 69230 kPa	1645.7
303.08 K, 30390 kPa	1501.5
303.09 K, 75990 kPa	1667.8
303.11 K, 45590 kPa	1561
303.15 K, 74790 kPa	1664.1
307.92 K, 75990 kPa	1655.1
307.93 K, 74720 kPa	1650.9
307.94 K, 73310 kPa	1646.2
307.95 K, 65860 kPa	1620.9
307.96 K, 60790 kPa	1603.1
307.96 K, 68850 kPa	1631.3
307.96 K, 71380 kPa	1639.8
307.97 K, 30390 kPa	1486.6
307.98 K, 45590 kPa	1546.9
308.04 K, 100 kPa	1345.8
308.09 K, 15200 kPa	1420
313 K, 60790 kPa	1589.4
313 K, 65980 kPa	1607.8
313 K, 69200 kPa	1618.9
313.01 K, 100 kPa	1329
313.01 K, 45590 kPa	1532.5
313.03 K, 30390 kPa	1471.9
313.03 K, 72900 kPa	1631.5
313.04 K, 75990 kPa	1641.7
313.06 K, 15200 kPa	1404.5
318.18 K, 100 kPa	1311.7
318.36 K, 15200 kPa	1387.7
318.4 K, 65950 kPa	1593.7
318.41 K, 60790 kPa	1575.1
318.43 K, 72660 kPa	1617
318.43 K, 73870 kPa	1621.1
318.43 K, 75990 kPa	1628.2
318.44 K, 30390 kPa	1456
318.44 K, 45590 kPa	1517.7
318.45 K, 30390 kPa	1455.9

Settings	mass density [kg/m3]
293.15 K	829.758
298.15 K	826.37
303.15 K	822.95
308.15 K	819.57
313.15 K	816.12
318.15 K	812.634

CCCCCCCO [heptan-1-ol]
Settings	speed of sound [m/s]
292.76 K, 75990 kPa	1654.2
292.77 K, 30390 kPa	1487.3
292.77 K, 45590 kPa	1546.9
292.77 K, 60790 kPa	1602.6
292.77 K, 91180 kPa	1702
292.77 K, 101320 kPa	1732.7
292.78 K, 15200 kPa	1421.7
292.89 K, 100 kPa	1345.4
298.06 K, 15200 kPa	1404.9
298.06 K, 30390 kPa	1471.8
298.06 K, 45590 kPa	1532.3
298.06 K, 60790 kPa	1588.2
298.06 K, 75990 kPa	1640.4
298.06 K, 91180 kPa	1688.9
298.06 K, 101320 kPa	1719.6
298.17 K, 100 kPa	1327.2
302.94 K, 15200 kPa	1389.5
302.94 K, 30390 kPa	1457.3
302.94 K, 45590 kPa	1518.7
302.94 K, 60790 kPa	1575.3
302.94 K, 91180 kPa	1677
302.94 K, 101320 kPa	1708
302.95 K, 75990 kPa	1628
303.14 K, 100 kPa	1310.2
307.93 K, 60790 kPa	1561.9
307.93 K, 91180 kPa	1664.8
307.94 K, 15200 kPa	1374
307.94 K, 30390 kPa	1442.8
307.94 K, 45590 kPa	1505
307.94 K, 75990 kPa	1615.5
307.94 K, 101320 kPa	1696
308.12 K, 100 kPa	1293.2
312.9 K, 30390 kPa	1428.7
312.9 K, 45590 kPa	1491.6
312.9 K, 60790 kPa	1549.1
312.9 K, 75990 kPa	1603.1
312.9 K, 91180 kPa	1653
312.91 K, 15200 kPa	1358.9
312.91 K, 101320 kPa	1684.7
313.09 K, 100 kPa	1276.3
318.29 K, 30390 kPa	1413.6
318.29 K, 45590 kPa	1477.5
318.29 K, 60790 kPa	1535.5
318.29 K, 75990 kPa	1590
318.29 K, 91180 kPa	1640.6
318.29 K, 101320 kPa	1672.4
318.3 K, 15200 kPa	1342.8
318.37 K, 100 kPa	1258.6

Settings	mass density [kg/m3]
293.15 K	822.297
298.15 K	818.796
303.15 K	815.269
308.15 K	811.724
313.15 K	808.158
318.15 K	804.546
